{"source": "PubChem BioAssay AID1033", "about": "(Sanford-Burnham Center for Chemical Genomics, 2008)", "note": "The source made the active and inactive calls. How the calls were made is not given here."}
{"molecular_target": "Chaperone protein DnaK (Escherichia coli (strain K12)) (UniProt P0A6Y8)", "sequence (P0A6Y8 whole entry, looked up)": "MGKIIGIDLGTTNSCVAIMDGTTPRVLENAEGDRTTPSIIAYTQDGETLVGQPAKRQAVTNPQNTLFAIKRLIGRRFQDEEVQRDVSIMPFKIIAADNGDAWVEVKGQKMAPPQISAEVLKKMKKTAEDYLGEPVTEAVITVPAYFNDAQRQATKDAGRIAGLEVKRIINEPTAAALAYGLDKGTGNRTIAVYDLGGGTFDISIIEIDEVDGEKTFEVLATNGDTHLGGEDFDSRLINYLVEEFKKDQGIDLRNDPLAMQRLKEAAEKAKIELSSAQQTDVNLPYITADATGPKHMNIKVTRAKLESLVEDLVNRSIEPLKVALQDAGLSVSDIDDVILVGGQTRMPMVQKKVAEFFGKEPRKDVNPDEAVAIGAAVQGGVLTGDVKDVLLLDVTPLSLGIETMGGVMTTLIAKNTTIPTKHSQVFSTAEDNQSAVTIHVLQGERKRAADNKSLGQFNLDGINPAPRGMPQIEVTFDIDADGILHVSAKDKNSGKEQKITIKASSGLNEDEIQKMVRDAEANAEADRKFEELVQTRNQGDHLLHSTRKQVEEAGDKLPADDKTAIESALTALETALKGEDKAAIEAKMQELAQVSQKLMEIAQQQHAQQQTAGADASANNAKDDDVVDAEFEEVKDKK", "experiment": "E. coli DnaK SBD ligand binding – biophysical, NMR, chaperone (AID 1033)", "conditions": "Purified DnaK SBD"}
{"smiles": "N#CCc1nc2ccccc2s1", "Kd": "> 4 mM (inactive)"}
{"smiles": "Cc1nnsc1C(=O)Nc1ccc(C(N)=O)cc1", "Kd": "> 4 mM (inactive)"}
{"smiles": "NCc1ccc2occc2c1", "Kd": "> 4 mM (inactive)"}
{"smiles": "CCC(=O)Nc1cccc(NC(C)=O)c1", "Kd": "> 4 mM (inactive)"}
{"smiles": "O=C1Cn2c(nc3ccccc32)N1c1ccccc1F", "Kd": "> 4 mM (inactive)"}
{"smiles": "Cc1nc2nc(Cc3ccccc3)nn2c(C)c1Cl", "Kd": "> 4 mM (inactive)"}
{"smiles": "CC(=O)N1CC2(C)CN(C(C)=O)CC(C)(C1)C2O", "note": "(stereo not given)", "Kd": "> 4 mM (inactive)"}
{"smiles": "Cc1nnc(SCC(=O)NCc2ccccc2)[nH]c1=O", "Kd": "> 4 mM (inactive)"}
{"smiles": "NC(=O)CSc1nnnn1-c1ccccc1", "Kd": "> 4 mM (inactive)"}
{"smiles": "S=c1nc2c(n[nH]1)[nH]c1ccccc12", "Kd": "> 4 mM (inactive)"}
{"smiles": "N#Cc1cnn(Cc2ccc(Cl)cc2)c1N", "Kd": "> 4 mM (inactive)"}
{"smiles": "O=C(NC1=NCCS1)c1ccc(Cl)s1", "Kd": "> 4 mM (inactive)"}
{"smiles": "CSc1cc(C)[nH]c(=O)n1", "Kd": "> 4 mM (inactive)"}
{"smiles": "Cc1cc(C(=O)N2CCN(c3ncccn3)CC2)cs1", "Kd": "> 4 mM (inactive)"}
{"smiles": "Cc1nnsc1C(=O)Nc1ccccn1", "Kd": "> 4 mM (inactive)"}
{"smiles": "c1cc2n(c1)CCNC2c1ccncc1", "note": "(stereo not given)", "Kd": "> 4 mM (inactive)"}
{"smiles": "CC(=O)NC(C)(C)C1CC=C(C)/C(=N\\O)C1", "note": "(stereo not given)", "Kd": "> 4 mM (inactive)"}
{"smiles": "OC[C@H]1O[C@@H](Oc2ccc(O)cc2)[C@H](O)[C@@H](O)[C@@H]1O", "Kd": "> 4 mM (inactive)"}
{"smiles": "O=C(O)CCC(=O)c1cccc2ccccc12", "Kd": "> 4 mM (inactive)"}
{"smiles": "O=C(Cc1cccs1)N1CCOCC1", "Kd": "> 4 mM (inactive)"}
{"smiles": "Cc1nnsc1C(=O)Nc1ccccc1[N+](=O)[O-]", "Kd": "> 4 mM (inactive)"}
{"smiles": "Cc1cc(NC(=O)c2ccc3c(c2)OCO3)no1", "Kd": "> 4 mM (inactive)"}
{"smiles": "COc1c2c(cc3cc[n+](C)cc13)OCO2", "Kd": "> 4 mM (inactive)"}
{"smiles": "CN(C)C(=O)Oc1cccc(-c2nnco2)c1", "Kd": "> 4 mM (inactive)"}
{"smiles": "CC(O)c1ccc(C(C)O)cc1", "note": "(stereo not given)", "Kd": "> 4 mM (inactive)"}
{"smiles": "S=c1[nH]nc(-c2cccnc2)n1Cc1ccccc1", "Kd": "> 4 mM (inactive)"}
{"smiles": "O=C(Nc1ccncc1)Nc1ccc(F)cc1F", "Kd": "> 4 mM (inactive)"}
{"smiles": "CC(=O)O[C@@H]1C[C@@]2(C)[C@H](c3ccoc3)C[C@H]3O[C@]32[C@]2(C)C(=O)C(O)=C3C(C)(C)C(=O)C=C[C@]3(C)C12", "note": "(stereo not given in full)", "Kd": "> 4 mM (inactive)"}
{"smiles": "Cn1ccnc1SCc1cc(=O)[nH]c2ccccc12", "Kd": "> 4 mM (inactive)"}
{"smiles": "Cc1ccc(-n2nnnc2SCC(N)=O)c(C)c1", "Kd": "> 4 mM (inactive)"}
{"smiles": "COc1ccc(-c2coc3cc(OC(C)=O)cc(OC(C)=O)c3c2=O)cc1", "Kd": "> 4 mM (inactive)"}
{"smiles": "Cc1nc(NCc2ccco2)nc2c1C(=O)CC(C)C2", "note": "(stereo not given)", "Kd": "> 4 mM (inactive)"}
{"smiles": "COc1c2c(cc3c1OCO3)CCN(C)C2", "Kd": "> 4 mM (inactive)"}
{"smiles": "CC(C)(C)C(=O)Nc1ncc(C(F)(F)F)cc1Cl", "Kd": "> 4 mM (inactive)"}
{"smiles": "Cc1ccc(C(=O)NC2=NCCS2)o1", "Kd": "> 4 mM (inactive)"}
{"smiles": "Cc1ccc2c(c1)CC[C@H]1CC(=O)CC[C@]21C", "Kd": "> 4 mM (inactive)"}
{"smiles": "O=C(O)c1cc(F)cc2c1OCOC2", "Kd": "> 4 mM (inactive)"}
{"smiles": "O=C(O)c1csc2ccccc12", "Kd": "> 4 mM (inactive)"}
{"smiles": "COc1ccc2c(c1)CCCN2C(N)=O", "Kd": "> 4 mM (inactive)"}
{"smiles": "COc1c(C(=O)N2CCCC2)ccc2ccccc12", "Kd": "> 4 mM (inactive)"}
{"smiles": "NC(=O)C1CCN(c2ccc(Cl)nn2)CC1", "Kd": "> 4 mM (inactive)"}
{"smiles": "O=C(c1nc2ncccn2n1)N1CCc2ccccc2C1", "Kd": "> 4 mM (inactive)"}
{"smiles": "Cn1ncc(NC(=O)Nc2ccc(F)cc2F)c1C(N)=O", "Kd": "> 4 mM (inactive)"}
{"smiles": "Cc1ccc2cccc(OC(=O)N3CCCC3)c2n1", "Kd": "> 4 mM (inactive)"}
{"smiles": "CN(C)S(=O)(=O)c1ccccc1C#N", "Kd": "> 4 mM (inactive)"}
{"smiles": "OC1CCC(C(F)(F)F)CC1", "note": "(stereo not given)", "Kd": "> 4 mM (inactive)"}
{"smiles": "O=C(NCc1cccs1)c1nc2ncccn2n1", "Kd": "inactive"}
{"smiles": "NC1=NCc2ccccc21", "Kd": "> 4 mM (inactive)"}
{"smiles": "CS(=O)(=O)N1CCN(c2ncccn2)CC1", "Kd": "> 4 mM (inactive)"}
{"smiles": "COc1ccc(-c2cc(=O)c3c(OC)c(OC)c(OC)c(OC)c3o2)cc1", "Kd": "> 4 mM (inactive)"}
{"smiles": "O=C1CSC(=Nc2cc(Cl)ccc2Cl)N1", "Kd": "> 4 mM (inactive)"}
{"smiles": "Cc1cc(C)n(CC(=O)O)n1", "Kd": "> 4 mM (inactive)"}
{"smiles": "COc1ccc(C)cc1S(=O)(=O)Nc1ccccc1C", "Kd": "> 4 mM (inactive)"}
{"smiles": "COC(=O)[C@@H]1OC(=O)[C@H]2O[C@@]23[C@@]1(C)CCC1[C@@]2(C)CCC(=O)C(C)(C)C2C[C@@H](OC(C)=O)[C@]13C", "note": "(stereo not given in full)", "Kd": "> 4 mM (inactive)"}
{"smiles": "CCc1ccc2oc(-c3cc(N)cc(C)c3O)nc2c1", "Kd": "> 4 mM (inactive)"}
{"smiles": "COc1cc([C@@H]2c3cc4c(cc3[C@H](OC(C)=O)[C@H]3COC(=O)[C@@H]23)OCO4)cc(OC)c1OC", "Kd": "> 4 mM (inactive)"}
{"smiles": "CCCn1cnn2c(=O)cc(C)nc12", "Kd": "> 4 mM (inactive)"}
{"smiles": "OCC1CCN(c2ncccn2)CC1", "Kd": "> 4 mM (inactive)"}
{"smiles": "CCCCCC(=O)Cc1cc(O)cc(O)c1C(=O)Oc1cc(CC(=O)CCCCC)c(C(=O)O)c(OC)c1", "Kd": "> 4 mM (inactive)"}
{"smiles": "c1cc(CNc2ccc3c(c2)OCCO3)ccn1", "Kd": "> 4 mM (inactive)"}
